# Active and inactive are the calls of the source. The rule behind the calls is not given here.
# What was measured:
# 3T3-L1 = assay: Induction of glucose uptake in mouse 3T3-L1 adipocytes assessed as [3H]2-deoxy-D-glucose uptake incubated for 1 hr followed by [3H]2-deoxy-D-glucose addition by fluorescence microscopic method; format: functional; conditions: read-out: ED50 (the source's name)
# C2C12 = assay: Activation of AMPK pathway in mouse C2C12 cells assessed as increase in AMPK phosphorylation at 10 to 20 uM after 60 mins by Western blot analysis; format: cell-based; conditions: filed as activator, dose microM 10-20, time 60.0 min
SMILES,EC50 (3T3-L1),Activity (C2C12)
CC1(C)CC[C@]2(C(=O)O[C@@H]3O[C@H](CO)[C@@H](O)[C@H](O)[C@H]3O)CC[C@]3(C)C(=CC[C@@H]4[C@@]5(C)C[C@@H](O)[C@H](OC(=O)c6cc(O)c(O)c(O)c6)[C@](CO)(COC(=O)c6cc(O)c(O)c(O)c6)[C@@H]5CC[C@]43C)[C@@H]2C1,12.1 µM,Active
CC1(C)CC[C@]2(C(=O)O)CC[C@]3(C)C(=CC[C@@H]4[C@@]5(C)C[C@@H](O)[C@H](O)C(CO)(CO)[C@@H]5CC[C@]43C)[C@@H]2C1,6.89 µM,–
CC1(C)CC[C@]2(C(=O)O[C@@H]3O[C@H](CO)[C@@H](O)[C@H](O)[C@H]3O)CC[C@]3(C)C(=CC[C@@H]4[C@@]5(C)C[C@@H](O)[C@H](OC(=O)c6cc(O)c(O)c(O)c6)C6(COC(=O)c7cc(O)c(O)c(O)c7-c7c(cc(O)c(O)c7O)C(=O)OC6)[C@@H]5CC[C@]43C)[C@@H]2C1,10.6 µM,–

# Reference: ChEMBL document CHEMBL4699514, “Glucose Uptake-Stimulating Galloyl Ester Triterpenoids from Castanopsis sieboldii” (2020)
